Test results taken from paper PMC6273769, “Screening of Potential Xanthine Oxidase Inhibitors in Gnaphalium hypoleucum DC. by Immobilized Metal Affinity Chromatography and Ultrafiltration-Ultra Performance Liquid Chromatography-Mass Spectrometry” (Molecules, 2016).
Like-named read-outs stand apart in the source and are kept apart here.

How the values were obtained:
xanthine oxidase [1] = biological target: T1, xanthine oxidase (Bos taurus, UniProt P80457); assay: XO activity assay (uric acid absorbance at […] nm) with Lineweaver-Burk kinetics (Ki […]); also retained by XO in ultrafiltration UPLC-MS; type: biochemical
T1 construct: gene XDH

xanthine oxidase [2] = biological target: T1, xanthine oxidase; assay: as above; type: biochemical; remark: listed apart in the source

T1 sequence (P80457 2-1332): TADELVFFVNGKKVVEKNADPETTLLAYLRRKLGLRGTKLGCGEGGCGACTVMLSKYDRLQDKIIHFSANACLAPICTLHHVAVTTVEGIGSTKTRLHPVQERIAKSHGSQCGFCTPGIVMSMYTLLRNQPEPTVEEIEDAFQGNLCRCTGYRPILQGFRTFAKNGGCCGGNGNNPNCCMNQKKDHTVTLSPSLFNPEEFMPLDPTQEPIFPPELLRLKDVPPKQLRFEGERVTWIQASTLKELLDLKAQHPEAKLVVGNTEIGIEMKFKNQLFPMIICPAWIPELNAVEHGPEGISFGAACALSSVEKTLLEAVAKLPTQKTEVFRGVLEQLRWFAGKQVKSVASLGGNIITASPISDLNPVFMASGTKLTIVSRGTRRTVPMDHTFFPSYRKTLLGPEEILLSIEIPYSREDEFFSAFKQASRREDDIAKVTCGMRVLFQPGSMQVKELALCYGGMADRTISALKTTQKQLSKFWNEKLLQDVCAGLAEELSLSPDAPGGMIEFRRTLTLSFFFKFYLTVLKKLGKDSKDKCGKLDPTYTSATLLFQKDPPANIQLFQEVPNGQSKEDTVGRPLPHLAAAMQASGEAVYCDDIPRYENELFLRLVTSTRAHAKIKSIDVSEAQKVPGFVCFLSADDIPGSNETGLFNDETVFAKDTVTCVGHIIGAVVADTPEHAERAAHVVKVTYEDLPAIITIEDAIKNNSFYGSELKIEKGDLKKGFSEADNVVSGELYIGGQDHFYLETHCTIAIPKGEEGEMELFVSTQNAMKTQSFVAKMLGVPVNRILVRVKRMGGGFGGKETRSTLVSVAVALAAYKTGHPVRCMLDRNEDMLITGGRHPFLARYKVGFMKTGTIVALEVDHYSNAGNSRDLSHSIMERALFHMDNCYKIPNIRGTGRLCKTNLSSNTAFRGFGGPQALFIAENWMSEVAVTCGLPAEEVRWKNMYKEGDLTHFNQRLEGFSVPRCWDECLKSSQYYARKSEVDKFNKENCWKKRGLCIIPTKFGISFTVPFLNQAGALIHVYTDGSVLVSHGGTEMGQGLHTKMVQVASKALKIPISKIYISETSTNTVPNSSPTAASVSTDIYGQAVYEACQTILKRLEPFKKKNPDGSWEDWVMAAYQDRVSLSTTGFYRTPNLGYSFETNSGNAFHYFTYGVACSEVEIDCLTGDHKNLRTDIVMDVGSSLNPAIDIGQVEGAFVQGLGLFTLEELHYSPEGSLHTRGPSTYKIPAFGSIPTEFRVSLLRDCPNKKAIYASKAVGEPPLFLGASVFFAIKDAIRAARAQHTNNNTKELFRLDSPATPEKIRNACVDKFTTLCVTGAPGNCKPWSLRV

IC50 (xanthine oxidase [1]) | IC50 (xanthine oxidase [2]) | Structure (SMILES)
580 nM | – | O=c1cc(-c2ccc(O[C@@H]3O[C@H](CO)[C@@H](O)[C@H](O)[C@H]3O)c(O)c2)oc2cc(O)cc(O)c12 [luteolin-4′-O-glucoside]
– | 1500 nM | O=c1cc(-c2ccc(O)c(O)c2)oc2cc(O)cc(O)c12 [luteolin]
